In patent US10501449B2 (priority 2018, dated 2019):

How the values were obtained:
hERG channels = hERG channels (Homo sapiens (Human), UniProt Q12809); assay: hERG Manual Patch Clamp Assay; assay type: cell-based; conditions: human, HEK 293 cells stably expressing hERG channels, pH 7.4, 1 uM, read-out: hERG EP % Inh @ 1 uM
hROMK (human Kir1.1) = hROMK (human Kir1.1) (Homo sapiens (Human), UniProt P48048); assay: cell-based; conditions: CHO T-Rex hROMK stable cell line; thallium flux; 10-point concentration response curve; read-out: Human ROMK Th Flux IC50
hROMK (human Kir1.1), sequence (P48048 whole entry): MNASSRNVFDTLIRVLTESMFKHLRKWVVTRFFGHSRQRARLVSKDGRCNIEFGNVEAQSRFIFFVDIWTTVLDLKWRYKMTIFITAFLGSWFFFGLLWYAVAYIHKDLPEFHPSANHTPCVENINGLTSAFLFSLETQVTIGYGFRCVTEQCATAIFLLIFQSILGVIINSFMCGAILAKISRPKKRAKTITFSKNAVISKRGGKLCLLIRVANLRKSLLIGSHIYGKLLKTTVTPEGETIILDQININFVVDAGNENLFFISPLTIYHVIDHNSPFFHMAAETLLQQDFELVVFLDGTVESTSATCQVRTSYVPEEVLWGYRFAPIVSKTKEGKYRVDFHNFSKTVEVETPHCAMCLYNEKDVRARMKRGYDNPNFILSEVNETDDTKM

hERG channels, sequence (Q12809 whole entry): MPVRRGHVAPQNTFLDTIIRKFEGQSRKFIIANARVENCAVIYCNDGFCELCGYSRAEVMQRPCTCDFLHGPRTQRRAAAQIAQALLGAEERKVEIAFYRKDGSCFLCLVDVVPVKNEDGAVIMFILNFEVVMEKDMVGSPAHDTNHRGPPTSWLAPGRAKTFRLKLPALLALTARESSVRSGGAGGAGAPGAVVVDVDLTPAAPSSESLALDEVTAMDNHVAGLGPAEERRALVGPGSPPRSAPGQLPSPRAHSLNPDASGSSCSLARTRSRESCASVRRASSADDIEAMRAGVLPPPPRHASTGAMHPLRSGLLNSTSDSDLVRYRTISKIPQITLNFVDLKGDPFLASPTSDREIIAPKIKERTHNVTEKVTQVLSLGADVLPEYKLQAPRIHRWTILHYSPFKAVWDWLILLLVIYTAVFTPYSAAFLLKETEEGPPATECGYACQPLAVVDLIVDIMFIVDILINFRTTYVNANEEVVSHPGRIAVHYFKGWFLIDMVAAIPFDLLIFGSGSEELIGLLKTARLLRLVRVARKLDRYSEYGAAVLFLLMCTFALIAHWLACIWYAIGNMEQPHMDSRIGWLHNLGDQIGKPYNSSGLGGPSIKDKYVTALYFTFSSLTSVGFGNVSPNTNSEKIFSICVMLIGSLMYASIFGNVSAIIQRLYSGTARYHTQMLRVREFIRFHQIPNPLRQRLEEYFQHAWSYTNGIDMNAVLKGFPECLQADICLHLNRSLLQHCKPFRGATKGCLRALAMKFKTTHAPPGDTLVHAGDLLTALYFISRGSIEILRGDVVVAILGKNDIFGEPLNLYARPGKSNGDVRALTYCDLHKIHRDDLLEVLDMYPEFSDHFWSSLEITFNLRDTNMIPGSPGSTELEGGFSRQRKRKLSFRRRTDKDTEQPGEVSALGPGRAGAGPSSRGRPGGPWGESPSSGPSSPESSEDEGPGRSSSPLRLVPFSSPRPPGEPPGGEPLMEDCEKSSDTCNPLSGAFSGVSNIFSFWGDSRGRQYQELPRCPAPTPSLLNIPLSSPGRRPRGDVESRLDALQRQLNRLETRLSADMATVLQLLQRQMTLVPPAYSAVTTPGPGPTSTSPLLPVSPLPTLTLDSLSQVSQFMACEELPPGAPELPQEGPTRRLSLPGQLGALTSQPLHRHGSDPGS

SMILES: Cc1cc(-n2cc(CN3CC(=O)N[C@H](c4ccc5c(c4C)COC5=O)C3)cn2)ncc1C#N [Example 15-I, (R)-4-methyl-6-(4-((3-(4-methyl-1-oxo-1,3-dihydroisobenzofuran-5-yl)-5-oxopiperazin-1-yl)methyl)-1H-pyrazol-1-yl)nicotinonitrile]
- inhibition at 1 µM (hERG channels): 5.8%

SMILES: COc1cc(-n2cc(CN3CC(CO)NC(c4ccc5c(c4C)COC5=O)C3)cn2)ncc1C#N (single isomer, unassigned) [Example 89-III]
- inhibition at 1 µM (hERG channels): 14%

SMILES: Cc1cc(-n2cnc(CN3C[C@@H](c4ccc5c(c4C)COC5=O)N[C@@H](C)C3)c2)ncc1C#N [Example 98-I, 4-methyl-6-(4-(((3S,5R)-3-methyl-5-(4-methyl-1-oxo-1,3-dihydroisobenzofur-an-5-yl)piperazin-1-yl)methyl)-1H-imidazol-1-yl)nicotinonitrile]
- inhibition at 1 µM (hERG channels): 9.3%

SMILES: COc1cc(-n2cc(CN3CCO[C@H](c4ccc5c(c4C)COC5=O)C3)cn2)ccc1C#N [Example 49-I, (R)-2-methoxy-4-(4-((2-(4-methyl-1-oxo-1,3-dihydroisobenzofuran-5-yl)morpholino)methyl)-1H-pyrazol-1-yl) benzonitrile]
- inhibition at 1 µM (hERG channels): 27%

SMILES: Cc1c([C@@H]2CN(Cc3cnc(-n4cnc(C(F)(F)F)c4)nc3)CCN2)ccc2c1COC2=O [Example 236-I, (R)-4-methyl-5-(4-((2-(4-(triflouromethyl)-1H-imidazol-1-yl)pyrimidin-5-yl)methyl)piperazin-2-yl)isobenzofuran-1(3H)-one]
- inhibition at 1 µM (hERG channels): 20%

SMILES: Cc1cc(-n2nc(C)c(CN3CCN[C@H](c4ccc5c(c4C)COC5=O)C3)n2)ncc1C#N [Example 169-I, (R)-4-methyl-6-(4-methyl-5-((3-(4-methyl-1-oxo-1,3-dihydroisobenzofuran-5-yl)piperazin-1-yl)methyl)-2H-1,2,3-triazol-2-yl)nicotinonitrile]
- inhibition at 1 µM (hERG channels): 12%

SMILES: Cc1c([C@@H]2CN(Cc3cnn(-c4cc(C(F)(F)F)c(C#N)cn4)c3)C[C@H](C)N2)ccc2c1COC2=O [Example 196-I, 6-(4-(((3S,5R)-3-methyl-5-(4-methyl-1-oxo-1,3-dihydroisobenzofuran-5-yl)piperazin-1-yl)methyl)-1H-pyraozl-1-yl)-4-(trifluoromethyl)nicotinonitrile]
- inhibition at 1 µM (hERG channels): 18%

SMILES: Cc1cc(-n2cc(CN3CC(c4ccc5c(c4C)COC5=O)OC(C)(C)C3)cn2)ncc1C#N (single isomer, unassigned) [Example 256-II, 6-(4-((2,2-dimethyl-6-(4-methyl-1-oxo-1,3-dihydroisobenzofuran-5-yl)morpholino)methyl)-1H-pyrazol-1-yl)-4-methylnicotinonitrile]
- inhibition at 1 µM (hERG channels): 13%

SMILES: Cc1c([C@@H]2CN(Cc3cn(-c4ccnc(C(F)F)c4)c(=O)n3C)C[C@H](C)N2)ccc2c1COC2=O [Example 276-I, 1-(2-(difluoromethyl)pyridin-4-yl)-3-methyl-4-(((3S,5R)-3-methyl-5-(4-methyl-1-oxo-1,3-dihydroisobenzofuran-5-yl)piperazin-1-yl)methyl)-1,3-dihydro-2H-imidazol-2-one]
- inhibition at 1 µM (hERG channels): 5.4%

SMILES: COc1cc(N2CCC(CN3CCN[C@H](c4ccc5c(c4C)COC5=O)C3)C2)ncc1C#N (single isomer, unassigned) [Example 154-I]
- inhibition at 1 µM (hERG channels): 43%

SMILES: COc1cc(-n2ncc(CN3CC[C@@H](O)[C@H](c4ccc5c(c4C)COC5=O)C3)n2)ncc1C#N [Example 111-I, 6-(4-(((3R,4R)-4-hydroxy-3-(4-methyl-1-oxo-1,3-dihydroisobenzofur-an-5-yl)piperidin-1-yl)methyl)-2H-1,2,3-triazol-2-yl)-4-methoxynicotinonit-rile]
- inhibition at 1 µM (hERG channels): 5.1%

SMILES: Cc1c([C@@H]2CN(Cc3cnn(-c4ccc(C#N)nc4)c3)CCO2)ccc2c1COC2=O [Example 48-I, (R)-5-(4-((2-(4-methyl-1-oxo-1,3-dihydroiso-benzofuran-5-yl)morpho-lino)methyl)-1H-pyrazol-1-yl)picolinonitrile]
- inhibition at 1 µM (hERG channels): 78%

SMILES: Cc1cn(-c2ccc(CN3CCN[C@H](c4ccc5c(c4C)COC5=O)C3)nn2)cn1 [Example 153-I, (R)-4-methyl-5-(4-((6-(4-methyl-1H-imidazol-1-yl)pyridazin-3-yl)methyl)piperazin-2-yl)isobenzofuran-1(3H)-one]
- inhibition at 1 µM (hERG channels): 10%

SMILES: CC(=O)NC1CC(c2ccc3c(c2C)COC3=O)CN(Cc2cnn(-c3cc(C)c(C#N)cn3)c2)C1 (single isomer, unassigned) [Example 257-I, N-(1-((1-(5-cyano-4-mehtylpyridin-2-yl)-1H-pyrazol-4-yl)methyl)-5-(4-methyl-1-oxo-1,3-dihydroisobenzofuran-5-yl)piperidin-3-yl)acetamide]
- IC50 (hROMK (human Kir1.1)): 1400 nM

SMILES: Cc1c([C@@H]2CN(Cc3cnn(-c4ccn(C(F)F)c(=O)c4)n3)C[C@H](C)N2)ccc2c1COC2=O [Example 270-I, 1-(difluoromethyl)-4-(4-(((3S,5R)-3-methyl-5-(4-methyl-1-oxo-1,3-dihydroisobenzofuran-5-yl)piperazin-1-yl)methyl)-2H-1,2,3-triazol-2-yl)pyridin-2(1H)-one]
- IC50 (hROMK (human Kir1.1)): 580 nM

SMILES: CNC(=O)OC1CCN(Cc2cnn(-c3cc(C)c(C#N)cn3)c2)CC1c1ccc2c(c1C)COC2=O (single isomer, unassigned) [Example 258-I, 1-((1-(5-cyano-4-methylpyridin-2-yl)-1H-pyrazol-4-yl)methyl)-3-(4-methyl-1-oxo-1,3-dihydroisobenzofuran-5-yl)piperidin-4-yl methylcarbamate]
- IC50 (hROMK (human Kir1.1)): 250 nM

SMILES: CC(=O)N1CCN(Cc2cnn(-c3cc(C)c(C#N)cn3)c2)C[C@H]1c1ccc2c(c1C)COC2=O [Example 68-I, (R)-6-(4-((4-acetyl-3-(4-methyl-1-oxo-1,3-di-hydroisobenzofuran-5-yl)piperazin-1-yl)methyl)-1H-pyrazol-1-yl)-4-methylnicotinonitrile]
- IC50 (hROMK (human Kir1.1)): 1700 nM

SMILES: Cc1c([C@@H]2CN(Cc3ccc(-n4cc(C(N)=O)cn4)nc3)CCN2)ccc2c1COC2=O [Example 138-I, (R)-1-(5-((3-(4-methyl-1-oxo-1,3-dihydroisobenzofuran-5-yl)piperazin-1-yl)methyl)pyridin-2-yl)-1H-pyrazole-4-carboxamide]
- IC50 (hROMK (human Kir1.1)): 670 nM

SMILES: Cc1cc(-c2ncc(CN3C[C@@H](c4ccc5c(c4C)COC5=O)N[C@@H](C)C3)s2)ncc1C#N [Example 113-I, 4,4-methyl-6-(5-(((3S,5R)-3-methyl-5-(4-methyl-1-oxo-1,3-dihydroisobenzofuran-5-yl)piperazin-1-yl)methyl)thiazol-2-yl)nicotinonitrile]
- IC50 (hROMK (human Kir1.1)): 25 nM

SMILES: Cc1c([C@@H]2CN(Cc3cnn(-c4ccn5nccc5n4)c3)CCO2)ccc2c1COC2=O [Example 50-I, (R)-4-methyl-5-(4-((1-(pyrazolo[1,5-a]pyrimidin-5-yl)-1H-pyrazol-4-yl)methyl)morpholin-2-yl)isobenzofuran-1(3H)-one]
- IC50 (hROMK (human Kir1.1)): 670 nM

SMILES: Cc1cc(N2CC(CN3CCN[C@H](c4ccc5c(c4C)COC5=O)C3)OC2=O)ncc1C#N (single isomer, unassigned) [Example 160-I]
- IC50 (hROMK (human Kir1.1)): 130 nM

SMILES: Cc1cc(-n2cc(CN3CC(F)C(c4ccc5c(c4C)COC5=O)C3)cn2)ncc1C#N (single isomer, unassigned) [Example 212-II, 6-(4-((3-fluoro-4-(4-methyl-1-oxo-1,3-dihydroisobenzofuran-5-yl)pyrrolidin-1-yl)methyl)-1H-pyrazol-1-yl)-4-methylnicotinonitrile]
- IC50 (hROMK (human Kir1.1)): 97 nM

SMILES: Cc1c([C@@H]2CN(Cc3cnn(-c4ccc5oc(=O)n(C)c5c4)c3)CCN2)ccc2c1COC2=O [Example 58-I, (R)-3-methyl-5-(4-((3-(4-methyl-1-oxo-1,3-dihydroisobenzofuran-5-yl)piperazin-1-yl)methyl)-1H-pyrazol-1-yl) benzo[d]oxazol-2(3H)-one]
- IC50 (hROMK (human Kir1.1)): 60 nM

SMILES: Cc1cc(-n2cc(CN3C[C@@H](c4ccc5c(c4C)COC5=O)NC3=O)cn2)ncc1C#N [Example 118-I, (R)-4-methyl-6-(4-((4-(4-methyl-1-oxo-1,3-dihydroisobenzofuran-5-yl)-2-oxoimidazolidin-1-yl)methyl)-1H-pyrazol-1-yl)nicotinonitrile]
- IC50 (hROMK (human Kir1.1)): 290 nM

SMILES: Cc1cc(-c2nnc(CN3CC(c4ccc5c(c4C)COC5=O)NC(C(F)F)C3)o2)ncc1C#N (single isomer, unassigned) [Example 273-I, 6-(5-((3-(difluoromethyl)-5-(4-methyl-1-oxo-1,3-dihydroisobenzofuran-5-yl)piperazin-1-yl)methyl)-1,3,4-oxadiazol-2-yl)-4-methylnicotinonitrile]
- IC50 (hROMK (human Kir1.1)): 720 nM

SMILES: [2H]C([2H])([2H])Oc1cc(-n2cc(CN3CCN[C@H](c4ccc5c(c4C)COC5=O)C3)nn2)ncc1C#N [Example 263-I, (R)-4-(methoxy-d3)-6-(4-((3-(4-methyl-1-oxo-1,3-dihydroisobenzofuran-5-yl)piperazin-1-yl)methyl)-1H-1,2,3-triazol-1-yl)nicotinonitrile]
- inhibition at 1 µM (hERG channels): 10%

SMILES: Cc1cc(-n2cc(CN3CCNC(c4ccc5c(c4C)COC5=O)C3C)cn2)ncc1C#N (centres unmarked) [Example 115-I, 4-methyl-6-(4-((2-methyl-3-(4-methyl-1-oxo-1,3-dihydroisobenzofuran-5-yl)piperazin-1-yl)methyl)-1H-pyrazol-1-yl)nicotinonitrile]
- inhibition at 1 µM (hERG channels): 45%

SMILES: COc1cc(-c2ccc(CN3C[C@@H](c4ccc5c(c4C)COC5=O)OC3=O)cn2)ncc1C#N [Example 17-I, (R)-4-methoxy-5′-((5-(4-methyl-1-oxo-1,3-dihydroisobenzofuran-5-yl)-2-oxooxazolidin-3-yl)methyl)-[2,2′-bipyridine]-5-carbonitrile]
- IC50 (hROMK (human Kir1.1)): 900 nM

SMILES: Cc1cc(-n2cc(CN3CC(=O)N(C)[C@H](c4ccc5c(c4C)COC5=O)C3)cn2)ncc1C#N [Example 77-I, (R)-4-methyl-6-(4-((4-methyl-3-(4-methyl-1-oxo-1,3-dihydroisobenzo-furan-5-yl)-5-oxo-piperazin-1-yl)methyl)-1H-pyrazol-1-yl)nicotino-nitrile]
- IC50 (hROMK (human Kir1.1)): 820 nM
